The values that follow come from US20050042172A1, “Administration of medicaments by vaporisation” (priority 2001, published 2005).

Data set [1] in a line: Reports of subjects taking THCV. It counts as in vivo. The source says:
In a further aspect the invention also provides compositions which have specific ratios of tetrahydrocannabinovarin (THCV) or cannabidivarin (CBDV).

Data set [2] can be described thus: Pain relief, THC alone versus cannabis extract.
The conditions of data set [3]: some clinical studies and anecdotal reports; a perception; cited from earlier work.

Consider `CCCc1cc(O)c2c(c1)OC(C)(C)[C@@H]1CCC(C)=C[C@@H]21` [THCV, tetrahydrocannabinovarin], for which the hangover result in data set [1] is recorded as “less severe hangover”. In addition, the mood enhancement entry in data set [1] (compared with THC) was “less disturbing than that produced by THC”.

`CCCCCc1cc(O)c2c(c1)OC(C)(C)[C@@H]1CCC(C)=C[C@@H]21` [THC, tetrahydrocannabinol]: the “degree of pain relief” value in data set [2] was “lower degree of pain relief”.

As to `C=C(C)[C@@H]1CCC(C)=C[C@H]1c1c(O)cc(CCCCC)cc1O` [CBD, cannabidiol], in data set [3], the “effect on psychoactive effects of THC” value is “modifies the psychoactive effects of THC”.
